In paper PMC10763615, “Identification and engineering of potent cyclic peptides with selective or promiscuous binding through biochemical profiling and bioinformatic data analysis” (RSC Chemical Biology, 2023):
pKd: −log10 of the molar value. Read-outs that look alike come from different tables or passages of the source.

Tests used:
FGF-R1C ECD [1] = target: T1, FGF-R1C ECD (Homo sapiens, UniProt P11362); assay: biochemical; assay type: binding; set-up: DNA constructs for the extracellular domain (ECD) of human FGF-; HPC4 (C); made in house; host or cells: HEK 293-6E
T1 sequence (P11362 22-376 limits assumed): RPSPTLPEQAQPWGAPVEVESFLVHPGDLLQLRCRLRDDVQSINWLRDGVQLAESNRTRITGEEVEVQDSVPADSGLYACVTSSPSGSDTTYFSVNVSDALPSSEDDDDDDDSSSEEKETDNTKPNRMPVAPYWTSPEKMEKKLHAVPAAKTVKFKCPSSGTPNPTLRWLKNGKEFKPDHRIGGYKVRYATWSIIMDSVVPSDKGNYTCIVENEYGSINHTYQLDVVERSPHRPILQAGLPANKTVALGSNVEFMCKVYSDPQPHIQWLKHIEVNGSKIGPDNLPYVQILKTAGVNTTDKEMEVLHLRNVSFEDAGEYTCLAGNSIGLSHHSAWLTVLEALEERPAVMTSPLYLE
Summary of the method: (§1)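 Biotinylated FGF-R ECD on streptavidin biosensors was dipped into ~1 μM crude peptide in PBS pH7.4 with 0.05% Tween-20 and 0.01% BSA for association, then into buffer for dissociation, and followed by BLI. Fitted KD values were adjusted for peptide concentration measured by UPLC-CAD.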

FGF-R3C ECD [2] = target: T2, FGF-R3C ECD (Homo sapiens, UniProt P22607); assay: biochemical; assay type: binding; set-up: DNA constructs for the extracellular domain (ECD) of human FGF-; HPC4 (C); made in house; host or cells: HEK 293-6E
T2 sequence (P22607 23-375 limits assumed): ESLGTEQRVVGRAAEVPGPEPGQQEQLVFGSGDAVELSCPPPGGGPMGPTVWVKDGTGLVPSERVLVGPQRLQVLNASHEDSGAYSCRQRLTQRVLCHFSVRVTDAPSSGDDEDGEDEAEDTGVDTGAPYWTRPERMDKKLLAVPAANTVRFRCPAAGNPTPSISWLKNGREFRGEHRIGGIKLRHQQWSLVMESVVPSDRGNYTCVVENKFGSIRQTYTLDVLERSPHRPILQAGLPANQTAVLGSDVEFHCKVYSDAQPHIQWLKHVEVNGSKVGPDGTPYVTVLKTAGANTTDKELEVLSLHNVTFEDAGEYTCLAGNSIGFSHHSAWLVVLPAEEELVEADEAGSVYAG
Summary of the method: as §1

FGF-R4 ECD [3] = target: T3, FGF-R4 ECD (Homo sapiens, UniProt P22455); assay: multi-concentration BLI of purified peptides; assay type: binding; conditions: purified trimer-18 library peptides
T3 construct: DNA constructs for the extracellular domain (ECD) of human FGF-; HPC4 (C); made in house; host or cells: HEK 293-6E
T3 sequence (P22455 22-369 limits assumed): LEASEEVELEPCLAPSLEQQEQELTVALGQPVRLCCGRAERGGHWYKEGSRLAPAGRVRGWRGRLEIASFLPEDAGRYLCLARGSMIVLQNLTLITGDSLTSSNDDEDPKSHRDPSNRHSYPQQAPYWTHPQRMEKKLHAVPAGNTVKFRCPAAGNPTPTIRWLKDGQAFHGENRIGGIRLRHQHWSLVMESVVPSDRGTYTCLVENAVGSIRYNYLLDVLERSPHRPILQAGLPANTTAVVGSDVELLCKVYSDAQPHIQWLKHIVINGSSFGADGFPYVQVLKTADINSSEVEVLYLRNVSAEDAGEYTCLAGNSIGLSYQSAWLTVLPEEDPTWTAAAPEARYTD
Description: (§2) KD affinity binding measurements were obtained by biolayer interferometry (BLI) instruments (Fortebio Octet HTX, or Sartorius Octet RH16 using either 8 or 16 channel mode.
(§3) For single concentration binding experiments, 50 μM peptide stocks in folding buffer were diluted 1:50 in mRNA display selection buffer (PBS pH7.4 supplemented with 0.05% Tween-20 and 0.01% BSA) in either a 96 well black plate, or a 384 well tilted bottom microplate (ForteBio). Biotinylated FGF-R protein was loaded onto Streptavidin-functionalised biosensors (ForteBio) and immersed into ~1 μM peptide to obtain association kinetics curves. Dissociation kinetics curves were obtained by subsequent immersion of ligand-associated loaded sensors into a 1:50 dilution of folding buffer in mRNA display selection buffer. Fitted KD data was adjusted for concentration as determined by UPLC-CAD.
(§4) For accurate multi-concentration KD determination, dilution series of each peptide were made, and association and dissociation kinetics curves were obtained as above for each concentration to fit a multi-point KD binding model. Data collection and analysis was performed using the Octet Instrument Control […]
(§5) concentration assay kinetics curves shown in supplementary Figure S 19-24.

FGF-R1C ECD [4] = target: T1, FGF-R1C ECD; assay: biochemical
Description: as §2, §3, §4, §5

FGF-R3C ECD [5] = target: T2, FGF-R3C ECD; assay: biochemical
Description: as §2, §3, §4, §5

FGF-R4 ECD [6] = target: T3, FGF-R4 ECD; assay: single concentration BLI of crude peptides; assay type: binding; conditions: crude T18 selection 1 (1:1:1) peptides, single concentration BLI (Table S4); read-out: KD (4)
Summary of the method: as §1

Row | Structure (SMILES) | pKd (FGF-R1C ECD [1]) | pKd (FGF-R3C ECD [2]) | pKd (FGF-R4 ECD [3]) | pKd (FGF-R1C ECD [4]) | pKd (FGF-R3C ECD [5]) | pKd (FGF-R4 ECD [6]) | R4 KD (nM) (FGF-R4 ECD [3])
1 | CSCC[C@H](NC(C)=O)C(=O)N[C@H]1CSSC[C@@H](C(=O)NCC(=O)N[C@@H](CO)C(=O)NCC(=O)N[C@@H](CO)C(=O)N[C@@H](CC(=O)O)C(=O)N[C@@H](Cc2ccc(O)cc2)C(=O)N[C@@H](CCCCN)C(=O)N[C@@H](CC(=O)O)C(=O)N[C@@H](CC(=O)O)C(=O)N[C@@H](CC(=O)O)C(=O)N[C@@H](CC(=O)O)C(=O)N[C@@H](CCCCN)C(N)=O)NC(=O)[C@H]([C@@H](C)O)NC(=O)[C@H](C(C)C)NC(=O)[C@H](CC(C)C)NC(=O)[C@H](CC(C)C)NC(=O)[C@H](Cc2c[nH]c3ccccc23)NC(=O)[C@H](Cc2ccc(O)cc2)NC(=O)[C@H](CC(C)C)NC(=O)[C@H](C(C)C)NC(=O)[C@H](CCC(=O)O)NC(=O)[C@H](CCCNC(=N)N)NC(=O)[C@H](CCC(=O)O)NC1=O [4.15] | 7.32 | < 5.00 | 6.42 | < 6.00 | < 6.00 | 6.89 | 
2 | CSCC[C@H](NC(C)=O)C(=O)N[C@H]1CSSC[C@@H](C(=O)NCC(=O)N[C@@H](CO)C(=O)NCC(=O)N[C@@H](CO)C(=O)N[C@@H](CC(=O)O)C(=O)N[C@@H](Cc2ccc(O)cc2)C(=O)N[C@@H](CCCCN)C(=O)N[C@@H](CC(=O)O)C(=O)N[C@@H](CC(=O)O)C(=O)N[C@@H](CC(=O)O)C(=O)N[C@@H](CC(=O)O)C(=O)N[C@@H](CCCCN)C(N)=O)NC(=O)[C@H](C)NC(=O)[C@H](Cc2c[nH]c3ccccc23)NC(=O)[C@H](Cc2ccc(O)cc2)NC(=O)[C@H](CCCNC(=N)N)NC(=O)[C@H](Cc2ccc(O)cc2)NC(=O)[C@H](CO)NC(=O)[C@H](Cc2ccc(O)cc2)NC(=O)[C@H](Cc2ccccc2)NC(=O)[C@H](CC(=O)O)NC(=O)[C@H](CC(=O)O)NC(=O)[C@H](CC(C)C)NC(=O)[C@H](Cc2ccc(O)cc2)NC1=O [4.16] | 7.27 | < 5.00 | < 6.00 | 7.82 | 7.43 | < 5.00 | no observable binding
3 | CSCC[C@H](NC(C)=O)C(=O)N[C@H]1CSSC[C@@H](C(=O)NCC(=O)N[C@@H](CO)C(=O)NCC(=O)N[C@@H](CO)C(=O)N[C@@H](CCC(=O)O)C(=O)N[C@@H](CCC(=O)O)C(=O)NCC(=O)N[C@@H](CO)C(=O)NCC(=O)N[C@@H](CO)C(=O)N[C@@H](CC(=O)O)C(=O)N[C@@H](Cc2ccc(O)cc2)C(=O)N[C@@H](CCCCN)C(=O)N[C@@H](CC(=O)O)C(=O)N[C@@H](CC(=O)O)C(=O)N[C@@H](CC(=O)O)C(=O)N[C@@H](CC(=O)O)C(=O)N[C@@H](CCCCN)C(N)=O)NC(=O)[C@H](CCCNC(=N)N)NC(=O)[C@H](CCCNC(=N)N)NC(=O)[C@H](Cc2c[nH]c3ccccc23)NC(=O)[C@H](CC(C)C)NC(=O)[C@H](CCCCN)NC(=O)[C@H](Cc2ccc(O)cc2)NC(=O)[C@H](Cc2ccc(O)cc2)NC(=O)[C@H](Cc2ccc(O)cc2)NC(=O)[C@H](CC(C)C)NC(=O)[C@H]([C@@H](C)O)NC(=O)[C@H]([C@@H](C)O)NC1=O [4.9] | 6.16 | 5.65 | < 6.00 | < 6.00 | < 6.00 | 9.00 | 
4 | CSCC[C@H](NC(C)=O)C(=O)N[C@H]1CSSC[C@@H](C(=O)NCC(=O)N[C@@H](CO)C(=O)NCC(=O)N[C@@H](CO)C(=O)N[C@@H](CC(=O)O)C(=O)N[C@@H](Cc2ccc(O)cc2)C(=O)N[C@@H](CCCCN)C(=O)N[C@@H](CC(=O)O)C(=O)N[C@@H](CC(=O)O)C(=O)N[C@@H](CC(=O)O)C(=O)N[C@@H](CC(=O)O)C(=O)N[C@@H](CCCCN)C(N)=O)NC(=O)[C@H](CC(=O)O)NC(=O)[C@H](CCCCN)NC(=O)[C@H](C(C)C)NC(=O)[C@H](Cc2c[nH]c3ccccc23)NC(=O)[C@H](Cc2ccccc2)NC(=O)[C@H](C(C)C)NC(=O)[C@H](Cc2c[nH]cn2)NC(=O)[C@H](CC(C)C)NC(=O)[C@H](CCCCN)NC(=O)[C@H](CCCCN)NC(=O)[C@H](Cc2c[nH]c3ccccc23)NC(=O)[C@H](Cc2ccccc2)NC1=O [4.22] |  |  | > 9.00 | 8.70 | 7.92 |  | sub-nanomolar
5 | CSCC[C@H](NC(C)=O)C(=O)N[C@H]1CSSC[C@@H](C(=O)NCC(=O)N[C@@H](CO)C(=O)NCC(=O)N[C@@H](CO)C(=O)N[C@@H](CC(=O)O)C(=O)N[C@@H](Cc2ccc(O)cc2)C(=O)N[C@@H](CCCCN)C(=O)N[C@@H](CC(=O)O)C(=O)N[C@@H](CC(=O)O)C(=O)N[C@@H](CC(=O)O)C(=O)N[C@@H](CC(=O)O)C(=O)N[C@@H](CCCCN)C(N)=O)NC(=O)[C@@H]2CCCN2C(=O)[C@H](CCCNC(=N)N)NC(=O)[C@H](Cc2c[nH]c3ccccc23)NC(=O)[C@@H]2CCCN2C(=O)[C@H](CCC(=O)O)NC(=O)[C@H](Cc2c[nH]cn2)NC(=O)[C@H](Cc2c[nH]c3ccccc23)NC(=O)[C@H](Cc2ccc(O)cc2)NC(=O)[C@H](C)NC(=O)[C@H](CCCCN)NC(=O)[C@H]([C@@H](C)O)NC(=O)[C@H](Cc2ccc(O)cc2)NC1=O [4.24] |  |  | < 6.00 | < 6.00 | < 6.00 |  | 
6 | CSCC[C@H](NC(C)=O)C(=O)N[C@H]1CSSC[C@@H](C(=O)NCC(=O)N[C@@H](CO)C(=O)NCC(=O)N[C@@H](CO)C(=O)N[C@@H](CC(=O)O)C(=O)N[C@@H](Cc2ccc(O)cc2)C(=O)N[C@@H](CCCCN)C(=O)N[C@@H](CC(=O)O)C(=O)N[C@@H](CC(=O)O)C(=O)N[C@@H](CC(=O)O)C(=O)N[C@@H](CC(=O)O)C(=O)N[C@@H](CCCCN)C(N)=O)NC(=O)[C@H](C)NC(=O)[C@H](CCCCN)NC(=O)[C@H](CCCNC(=N)N)NC(=O)[C@H](Cc2c[nH]c3ccccc23)NC(=O)[C@H](CC(C)C)NC(=O)[C@H](CC(C)C)NC(=O)[C@H](Cc2ccc(O)cc2)NC(=O)[C@H](Cc2ccc(O)cc2)NC(=O)[C@H](Cc2ccccc2)NC(=O)[C@H](CC(C)C)NC(=O)[C@H](CC(=O)O)NC(=O)[C@H](CC(N)=O)NC1=O [4.18] |  |  | 6.22 | < 6.00 | < 6.00 |  | 
7 | CC[C@H](C)[C@@H]1NC(=O)[C@H](Cc2c[nH]c3ccccc23)NC(=O)[C@H](Cc2ccc(O)cc2)NC(=O)[C@H](CCCCN)NC(=O)[C@H](C(C)C)NC(=O)[C@H](Cc2c[nH]c3ccccc23)NC(=O)[C@H](Cc2ccc(O)cc2)NC(=O)[C@H](CCCCN)NC(=O)[C@H](CC(=O)O)NC(=O)[C@@H](NC(=O)[C@H](CCSC)NC(C)=O)CSSC[C@@H](C(=O)NCC(=O)N[C@@H](CO)C(=O)NCC(=O)N[C@@H](CO)C(=O)N[C@@H](CC(=O)O)C(=O)N[C@@H](Cc2ccc(O)cc2)C(=O)N[C@@H](CCCCN)C(=O)N[C@@H](CC(=O)O)C(=O)N[C@@H](CC(=O)O)C(=O)N[C@@H](CC(=O)O)C(=O)N[C@@H](CC(=O)O)C(=O)N[C@@H](CCCCN)C(N)=O)NC(=O)[C@H](CCCNC(=N)N)NC(=O)[C@H](Cc2c[nH]c3ccccc23)NC(=O)[C@H](C)NC1=O [4.21] |  |  | 6.39 | 6.11 | 6.29 |  | 
